ChEMBL document CHEMBL3822432, “Antibacterial and anticancer activity of a series of novel peptides incorporating cyclic tetra-substituted C(α) amino acids” (Bioorg Med Chem, 2016)
Values after ≈ are worked out from the molar mass of the structure shown. Non-standard residues stand in square brackets, D forms with d. Residues, ends and D or L forms follow the SMILES beside them. Ac6c = NC1(C(=O)O)CCCCC1

Experiments:
Enterococcus faecium = test: Potency index, ratio of Ac-GF-Tic-Oic-GK-Tic-Oic-GF-Tic-Oic-GK-Tic-KKKK-CONH2 MIC to compound MIC for Enterococcus faecium; assay type: functional
Klebsiella aerogenes [1] = test: Antibacterial activity against carbapenem-resistant Enterobacter aerogenes NCDC819-56 ATCC 13048 by two fold serial dilution method; assay type: functional
Acinetobacter baumannii [2] = test: Antibacterial activity against Acinetobacter baumannii B5W71 ATCC 15149 by two fold serial dilution method; assay type: functional
[3] = Antibacterial activity against Salmonella enterica LT2 Typhimurium ATCC 15277 by two fold serial dilution method; assay type: functional
Pseudomonas aeruginosa [4] = test: Antibacterial activity against Pseudomonas aeruginosa Boston 41501 ATCC 27853 by two fold serial dilution method; assay type: functional
[5] = Antibacterial activity against carbapenem-resistant Klebsiella pneumoniae K6 ATCC 700603 by two fold serial dilution method; assay type: functional, Klebsiella pneumoniae 700603
Enterococcus faecalis = test: Antibacterial activity against Enterococcus faecalis Portland ATCC 29212 by two fold serial dilution method; assay type: functional; details: ATCC 29212 Portland
Staphylococcus aureus [6] = test: Antibacterial activity against methicillin-resistant Staphylococcus aureus USA 300 NRS 384 by two fold serial dilution method; assay type: functional
[7] = Antibacterial activity against Clostridium difficile VIP 10463 ATCC 43255 by two fold serial dilution method; assay type: functional, Clostridium difficile ATCC 43255; details: Clostridioides difficile
Staphylococcus aureus [8] = test: Antibacterial activity against Staphylococcus aureus Seattle 1945 ATCC 25923 by two fold serial dilution method; assay type: functional
Streptococcus pneumoniae = test: Antibacterial activity against Streptococcus pneumoniae 262 ATCC 49619 by two fold serial dilution method; assay type: functional
Neisseria gonorrhoeae = test: Antibacterial activity against Neisseria gonorrhoeae F-18 ATCC 49226 by two fold serial dilution method; assay type: functional
[9] = Antibacterial activity against Bacillus anthracis Ames NR-3838 by two fold serial dilution method; assay type: functional, Bacillus anthracis str. Ames
[10] = Antibacterial activity against Francisella tularensis SCHU S4 NR-643 by two fold serial dilution method; assay type: functional
[11] = Antibacterial activity against Yersinia pestis CO92 NR641 by two fold serial dilution method; assay type: functional
[12] = system: Burkholderia pseudomallei; test: Antibacterial activity against Burkholderia pseudomallei AHS 1 NCTC 8016 by two fold serial dilution method; assay type: functional
[13] = system: Mycobacterium tuberculosis; test: Antibacterial activity against Mycobacterium tuberculosis H37Ra ATCC 2517 by two fold serial dilution method; assay type: functional
CFPAC-1 = test: Antiproliferative activity against human CFPAC-1 cells after 72 hrs by Celltiter-Glo luminescent cell viability assay; assay type: functional, cell-based; details: CFPAC-1, 72 h
MCF7 = test: Antiproliferative activity against human MCF7 cells after 72 hrs by Celltiter-Glo luminescent cell viability assay; assay type: functional, cell-based; details: MCF7, 72 h
[14] = Antiproliferative activity against human IGROV1 cells after 72 hrs by Celltiter-Glo luminescent cell viability assay; assay type: functional, cell-based; details: IGROV-1, 72 h
[15] = Antiproliferative activity against human COLO205 cells after 72 hrs by Celltiter-Glo luminescent cell viability assay; assay type: functional, cell-based; details: COLO 205, 72 h
[16] = Antiproliferative activity against human DLD1 cells after 72 hrs by Celltiter-Glo luminescent cell viability assay; assay type: functional, cell-based; details: DLD-1, 72 h
[17] = Antiproliferative activity against human UACC62 cells after 72 hrs by Celltiter-Glo luminescent cell viability assay; assay type: functional, cell-based; details: UACC-62, 72 h
[18] = Antiproliferative activity against human MIAPaCa2 cells after 72 hrs by Celltiter-Glo luminescent cell viability assay; assay type: functional, cell-based; details: MIA PaCa-2, 72 h
A498 = test: Antiproliferative activity against human A498 cells after 72 hrs by Celltiter-Glo luminescent cell viability assay; assay type: functional, cell-based; details: A498, 72 h
[19] = Antiproliferative activity against human PC3 cells after 72 hrs by Celltiter-Glo luminescent cell viability assay; assay type: functional, cell-based; details: PC-3, 72 h
A549 = test: Antiproliferative activity against human A549 cells after 72 hrs by Celltiter-Glo luminescent cell viability assay; assay type: functional, cell-based; details: A549, 72 h
NCI-H69 = test: Antiproliferative activity against human NCI-H69 cells after 72 hrs by Celltiter-Glo luminescent cell viability assay; assay type: functional, cell-based; details: NCI-H69, 72 h
RL = test: Antiproliferative activity against human RL cells after 72 hrs by Celltiter-Glo luminescent cell viability assay; assay type: functional, cell-based
Klebsiella aerogenes [20] = test: Potency index, ratio of Ac-GF-Tic-Oic-GK-Tic-Oic-GF-Tic-Oic-GK-Tic-KKKK-CONH2 MIC to compound MIC for carbapenem-resistant Enterobacter aerogenes NCDC819-56 ATCC 13048; assay type: functional; details: pooled result: one value given for 3 cell lines, strains, targets or settings
Acinetobacter baumannii [21] = test: Potency index, ratio of Ac-GF-Tic-Oic-GK-Tic-Oic-GF-Tic-Oic-GK-Tic-KKKK-CONH2 MIC to compound MIC for Acinetobacter baumannii B5W71 ATCC 15149; assay type: functional
Pseudomonas aeruginosa [22] = test: Potency index, ratio of Ac-GF-Tic-Oic-GK-Tic-Oic-GF-Tic-Oic-GK-Tic-KKKK-CONH2 MIC to compound MIC for Pseudomonas aeruginosa Boston 41501 ATCC 27853; assay type: functional

Structure (SMILES) | MIC (Klebsiella aerogenes [1]) | MIC (Acinetobacter baumannii [2]) | MIC [3] | MIC (Pseudomonas aeruginosa [4]) | MIC [5] | MIC (Enterococcus faecalis) | MIC (Staphylococcus aureus [6]) | MIC [7] | MIC (Staphylococcus aureus [8]) | MIC (Streptococcus pneumoniae) | MIC (Neisseria gonorrhoeae) | MIC [9] | MIC [10] | MIC [11] | MIC [12] | MIC [13] | IC50 (CFPAC-1) | IC50 (MCF7) | IC50 [14] | IC50 [15] | also measured
CC(=O)NCC(=O)N[C@H](Cc1ccccc1)C(=O)NC1(C(=O)NCC(=O)N2C(C(=O)N[C@@H](CCCCN)C(=O)NC3(C(=O)NCC(=O)N4C(C(=O)N[C@@H](Cc5ccccc5)C(=O)NC5(C(=O)NCC(=O)N6C(C(=O)NCC(=O)N[C@@H](CCCCN)C(=O)N7C(C(=O)N[C@H](CCCCN)C(=O)N[C@H](CCCCN)C(=O)N[C@H](CCCCN)C(=O)N[C@H](CCCCN)C(N)=O)CC8CCCCC87)CC7CCCCC76)CCCCC5)CC5CCCCC54)CCCCC3)CC3CCCCC32)CCCCC1 (stereo in doubt) | > 42 µM | 20.9 µM (≈ 50 µg/mL) | 41.9 µM (≈ 100 µg/mL) | 20.9 µM (≈ 50 µg/mL) | > 42 µM | > 42 µM | > 42 µM | 2.62 µM (≈ 6.26 µg/mL) | > 42 µM | > 42 µM | 20.9 µM (≈ 50 µg/mL) | 20.9 µM (≈ 50 µg/mL) | 20.9 µM (≈ 50 µg/mL) | > 42 µM | > 42 µM | 20.9 µM (≈ 50 µg/mL) | > 7.5 µM | > 7.5 µM | > 7.5 µM | > 7.5 µM | Ratio (Enterococcus faecium): 4.2; IC50 [16]: > 7.5 µM; IC50 [17]: > 7.5 µM; IC50 [18]: > 7.5 µM; IC50 (A498): > 7.5 µM; IC50 [19]: > 7.5 µM; IC50 (A549): > 7.5 µM; IC50 (NCI-H69): > 7.5 µM; IC50 (RL): 6.7 µM; Ratio (Klebsiella aerogenes [20]): 1.05; Ratio (Acinetobacter baumannii [21]): 8.372; Ratio (Pseudomonas aeruginosa [22]): 0.5232
CC(=O)NCC(=O)N[C@@H](Cc1ccccc1)C(=O)NC1(C(=O)NCC(=O)NC2(C(=O)N[C@@H](CCCCN)C(=O)N[C@@H](CCCCN)C(=O)NC3(C(=O)NCC(=O)NC4(C(=O)N[C@@H](Cc5ccccc5)C(=O)NC5(C(=O)NCC(=O)NC6(C(=O)NCC(=O)N[C@@H](CCCCN)C(=O)N[C@@H](CCCCN)C(=O)NC7(C(=O)N[C@@H](CCCCN)C(=O)N[C@@H](CCCCN)C(=O)N[C@@H](CCCCN)C(=O)N[C@@H](CCCCN)C(N)=O)CCCCC7)CCCCC6)CCCCC5)CCCCC4)CCCCC3)CCCCC2)CCCCC1 (Ac-GF[Ac6c]G[Ac6c]KK[Ac6c]G[Ac6c]F[Ac6c]G[Ac6c]GKK[Ac6c]KKKK-NH2) | > 39 µM | 2.46 µM (≈ 6.25 µg/mL) | 2.46 µM (≈ 6.25 µg/mL) | 2.46 µM (≈ 6.25 µg/mL) | 19.7 µM (≈ 50 µg/mL) | 19.7 µM (≈ 50 µg/mL) | 39.4 µM (≈ 100 µg/mL) | 2.46 µM (≈ 6.25 µg/mL) | 19.7 µM (≈ 50 µg/mL) | 39.4 µM (≈ 100 µg/mL) | 0.61 µM (≈ 1.55 µg/mL) | 2.46 µM (≈ 6.25 µg/mL) | 19.7 µM (≈ 50 µg/mL) | > 39 µM | > 39 µM | 4.92 µM (≈ 12.5 µg/mL) | > 7.5 µM | 6.2 µM | > 7.5 µM | 5.4 µM | IC50 [16]: > 7.5 µM; IC50 [17]: 2.6 µM; IC50 [18]: 7.3 µM; IC50 (A498): 3 µM; IC50 [19]: > 7.5 µM; IC50 (A549): 7.2 µM; IC50 (NCI-H69): 1.9 µM; IC50 (RL): 2 µM
